Here are results for one compound from ChEMBL document CHEMBL3232855, “The discovery of N-((2H-tetrazol-5-yl)methyl)-4-((R)-1-((5r,8R)-8-(tert-butyl)-3-(3,5-dichlorophenyl)-2-oxo-1,4-diazaspiro[4.5]dec-3-en-1-yl)-4,4-dimethylpentyl)benzamide (SCH 900822): a potent and selective glucagon receptor antagonist” (J Med Chem, 2014).

Structures are written as SMILES.

The nature of data set [1]: Plasma concentration in streptozotocin-induced ICR mouse type-2 diabetic model at 10 mg/kg, po measured at 8 hrs by HPLC/MS/MS analysis. In kind it is ADME, organism-based. Also noted: dose 10 mg/kg, route oral.
Data set [2] can be described thus: Volume of distribution at steady state in dog at 1 mg/kg, iv. The format is ADME, organism-based, Canis lupus familiaris. Also noted: dose 1 mg/kg, route intravenous. To be noted: in vivo, read-out: Vdss.
Data set [3] addresses T1, Gastric inhibitory polypeptide receptor (Homo sapiens, UniProt P48546).
T1 sequence (P48546 whole entry): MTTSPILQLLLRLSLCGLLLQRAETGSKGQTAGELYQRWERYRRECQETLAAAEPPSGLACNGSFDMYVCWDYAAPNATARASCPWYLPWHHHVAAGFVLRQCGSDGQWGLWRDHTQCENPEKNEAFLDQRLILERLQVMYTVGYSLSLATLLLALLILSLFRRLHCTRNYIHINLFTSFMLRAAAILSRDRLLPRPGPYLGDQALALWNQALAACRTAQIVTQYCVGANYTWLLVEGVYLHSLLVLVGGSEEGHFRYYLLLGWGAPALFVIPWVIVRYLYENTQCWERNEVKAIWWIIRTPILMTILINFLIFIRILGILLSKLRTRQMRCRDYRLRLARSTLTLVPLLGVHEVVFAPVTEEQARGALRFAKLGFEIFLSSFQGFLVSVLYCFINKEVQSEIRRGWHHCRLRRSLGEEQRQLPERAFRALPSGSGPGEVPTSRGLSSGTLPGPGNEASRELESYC
The data set is described as follows: Antagonist activity at human GIPR assessed as inhibition of cAMP production. In kind it is functional.

Data set [4] has as its target T2, Vasoactive intestinal polypeptide receptor 1 (Homo sapiens) (UniProt P32241).
T2 sequence (whole entry): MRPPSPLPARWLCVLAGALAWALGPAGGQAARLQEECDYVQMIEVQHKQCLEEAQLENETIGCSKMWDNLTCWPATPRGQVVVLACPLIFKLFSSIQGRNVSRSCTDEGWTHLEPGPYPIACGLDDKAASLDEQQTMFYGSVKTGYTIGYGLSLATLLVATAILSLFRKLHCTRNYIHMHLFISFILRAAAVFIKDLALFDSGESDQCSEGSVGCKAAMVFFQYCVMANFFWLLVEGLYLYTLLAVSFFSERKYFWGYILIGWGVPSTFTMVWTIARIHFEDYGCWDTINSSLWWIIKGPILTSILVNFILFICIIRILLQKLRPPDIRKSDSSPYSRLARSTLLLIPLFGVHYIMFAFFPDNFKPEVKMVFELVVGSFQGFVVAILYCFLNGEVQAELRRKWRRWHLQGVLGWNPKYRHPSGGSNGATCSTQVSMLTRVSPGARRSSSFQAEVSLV
The data set is described as follows: Binding affinity to VIP-1 receptor (unknown origin) at 10 uM by agonist displacement assay relative to control.

In data set [1], `CC(C)(C)CC[C@H](c1ccc(C(=O)NCc2nn[nH]n2)cc1)N1C(=O)C(c2cc(Cl)cc(Cl)c2)=N[C@]12CC[C@@H](C(C)(C)C)CC2` showed a concentration at 8 h of 4.5 µM. Moreover, the Vd in data set [2] was determined as 0.1 L/kg. For the same compound, in data set [3], the IC50 stood at 2100 nM. In data set [4], this compound registered an inhibition of 75%.
